Laboratory results from patent publication US9107410B2, “Pesticidal compositions and processes related thereto” (Dow AgroSciences LLC, priority 2011, dated 2015).
Read-outs that look alike come from different tables or passages of the source.

Experiments:
Format in all cases: in vivo
[1] = system: Corn Earworm (CEW) (Helicoverpa zea); test: Bioassay on corn earworm (CEW), 128-well diet tray assay; conditions: 168 h, read-out: % Mortality CEW 50 μg/cm^2
Procedure: (§1) Certain molecules disclosed in this document were tested against BAW and CEW using procedures described in the following examples. In the reporting of the results, the “BAW & CEW Rating Table” was used (See Table Section).
Bioassays on CEW (Helicoverpa zea)
Bioassays on CEW were conducted using a 128-well diet tray assay. One to five second instar CEW larvae were placed in each well (3 mL) of the diet tray that had been previously filled with 1 mL of artificial diet to which 50 μg/cm^2 of the test compound (dissolved in 50 μL of 90:10 acetone-water mixture) had been applied (to each of eight wells) and then allowed to dry. Trays were covered with a clear self-adhesive cover, and held at 25° C., 14:10 light-dark for five to seven days. Percent mortality was recorded for the larvae in each well; activity in the eight wells was then averaged. The results are indicated in the table entitled “Table: Bio Results” (See Table Section).

[2] = system: Green Peach Aphid (GPA) (Myzus persicae); test: Bioassay on green peach aphid (GPA), foliar spray on cabbage seedlings; conditions: 72 h, read-out: % Mortality GPA 200 ppm
Procedure: Certain molecules disclosed in this document were tested against GPA using procedures described in the following example. In the reporting of the results, the “GPA Rating Table” was used (See Table Section).
Cabbage seedlings grown in 3-inch pots, with 2-3 small (3-5 cm) true leaves, were used as test substrate. The seedlings were infested with 20-50 GPA (wingless adult and nymph stages) one day prior to chemical application. Four pots with individual seedlings were used for each treatment. Test compounds (2 mg) were dissolved in 2 mL of acetone/methanol (1:1) solvent, forming stock solutions of 1000 ppm test compound. The stock solutions were diluted 5× with 0.025% Tween 20 in H2O to obtain the solution at 200 ppm test compound. A hand-held aspirator-type sprayer was used for spraying a solution to both sides of […] leaves until runoff. Reference plants (solvent check) were sprayed with the diluent only containing 20% by volume of acetone/methanol (1:1) solvent. Treated plants were held in a holding room for three days at approximately 25° C. and ambient relative humidity (RH) prior to grading. Evaluation was conducted by counting the number of live aphids per plant under a microscope. Percent Control was measured by using Abbott's correction formula (W. S. Abbott, “A Method of Computing the Effectiveness of an Insecticide” J. Econ. Entomol. 18 (1925), pp. 265-267) as follows. Corrected % Control=100*(X−Y)/X • where • X=No. of live aphids on solvent check plants and • Y=No. of live aphids on treated plants

[3] = system: Beet Armyworm (BAW) (Spodoptera exigua); test: Bioassay on beet armyworm (BAW), 128-well diet tray assay; conditions: 168 h, read-out: % Mortality BAW 50 μg/cm^2
Procedure: as §1
Bioassays on BAW (Spodoptera exigua)
Bioassays on BAW were conducted using a 128-well diet tray assay. One to five second instar BAW larvae were placed in each well (3 mL) of the diet tray that had been previously filled with 1 mL of artificial diet to which 50 μg/cm^2 of the test compound (dissolved in 50 μL of 90:10 acetone-water mixture) had been applied (to each of eight wells) and then allowed to dry. Trays were covered with a clear self-adhesive cover, and held at 25° C., 14:10 light-dark for five to seven days. Percent mortality was recorded for the larvae in each well; activity in the eight wells was then averaged. The results are indicated in the table entitled “Table: Bio Results” (See Table Section).

[4] = 50 μg/cm^2 on artificial diet, second instar larvae, 25° C., five to seven days, average of eight wells
[5] = 200 ppm foliar spray on cabbage seedlings, graded after three days, Abbott corrected % control

| SMILES | mortality at 50 µg/cm2 [1, 4] [%] | mortality at 200 ppm [2, 5] [%] | mortality at 50 µg/cm2 [3, 4] [%] | mortality at 50 µg/cm2 [1] [%] | mortality at 200 ppm ([2]; foliar) [%] | mortality at 50 µg/cm2 [3] [%] |
| --- | --- | --- | --- | --- | --- | --- |
| Cc1ccc(NC(=S)NC2CC2c2ccc(-c3ncn(-c4ccc(OC(F)(F)F)cc4)n3)cc2)c(C)c1 (stereo not drawn) [Compound 11, 1-(2,4-Dimethylphenyl)-3-(2-(4-(1-(4-(trifluoromethoxy)phenyl)-1H-1,2,4-triazol-3-yl)phenyl)cyclopropyl)thiourea] | 50 to 100 | 0 to 80 | 50 to 100 | – | – | – |
| O=C(NC1CC1c1ccc(-c2ncn(-c3ccc(OC(F)(F)F)cc3)n2)cc1)Oc1ccccc1 (stereo not drawn) [Compound 21, Phenyl 2-(4-(1-(4-(trifluoromethoxy)phenyl)-1H-1,2,4-triazol-3-yl)phenyl)cyclopropyl-carbamate] | – | – | – | 50 to 100 | 0 | 50 to 100 |
| O=C(NC1CC1c1ccc(-c2ncn(-c3ccc(OC(F)(F)F)cc3)n2)cc1)Oc1ccccc1C(F)(F)F (stereo not drawn) [Compound 25, 2-(Trifluoromethyl)phenyl 2-(4-(1-(4-(trifluoromethoxy)phenyl)-1H-1,2,4-triazol-3-yl)-phenyl)cyclopropylcarbamate] | – | – | – | 0 | 0 to 80 | 0 |
| Cc1cc(F)ccc1OC(=O)NC1CC1c1ccc(-c2ncn(-c3ccc(OC(F)(F)F)cc3)n2)cc1 (stereo not drawn) [Compound 22, 4-Fluoro-2-methylphenyl 2-(4-(1-(4-(trifluoromethoxy)phenyl)-1H-1,2,4-triazol-3-yl)-phenyl)cyclopropylcarbamate] | – | – | – | 50 to 100 | 0 | 50 to 100 |
| Cc1cc(Cl)ccc1NC(=S)NC1CC1c1ccc(-c2ncn(-c3ccc(OC(F)(F)F)cc3)n2)cc1 (stereo not drawn) [Compound 4, 1-(4-Chloro-2-methylphenyl)-3-(2-{4-[1-(4-trifluoromethoxyphenyl)-1H-[1,2,4]triazol-3-yl]phenyl}cyclopropyl)thiourea] | 50 to 100 | 0 | 50 to 100 | – | – | – |
| COc1ccc(NC(=S)NC2CC2c2ccc(-c3ncn(-c4ccc(OC(F)(F)F)cc4)n3)cc2)c(OC)c1 (stereo not drawn) [Compound 10, 1-(2,4-Dimethoxyphenyl)-3-(2-{4-[1-(4-trifluoromethoxyphenyl)-1H-[1,2,4]triazol-3-yl]phenyl}cyclopropyl)thiourea] | 50 to 100 | 0 to 80 | 50 to 100 | – | – | – |
| COC(=O)NC1CC1c1ccc(-c2ncn(-c3ccc(OC(F)(F)F)cc3)n2)cc1 (stereo not drawn) [Compound 18, Methyl 2-(4-(1-(4-(trifluoromethoxy)phenyl)-1H-1,2,4-triazol-3-yl)phenyl)cyclopropyl-carbamate] | – | – | – | 0 to 50 | 0 | 0 |
| COc1ccc(NC(=S)NC2CC2c2ccc(-c3ncn(-c4ccc(OC(F)(F)F)cc4)n3)cc2)c(C)c1 (stereo not drawn) [Compound 3, 1-(4-Methoxy-2-methylphenyl)-3-(2-{4-[1-(4-trifluoromethoxyphenyl)-1H-[1,2,4]triazol-3-yl]phenyl}cyclopropyl)thiourea] | 50 to 100 | 0 to 80 | 50 to 100 | – | – | – |
| Cc1cc(C)c(NC(=S)NC2CC2c2ccc(-c3ncn(-c4ccc(OC(F)(F)F)cc4)n3)cc2)c(C)c1 (stereo not drawn) [Compound 9, 1-(2-{4-[1-(4-Trifluoromethoxyphenyl)-1H-[1,2,4]triazol-3-yl]phenyl}-cyclopropyl)-3-(2,4,6-trimethylphenyl)thiourea] | 50 to 100 | 0 | 50 to 100 | – | – | – |
| O=C(NC1CC1c1ccc(-c2ncn(-c3ccc(OC(F)(F)F)cc3)n2)cc1)Oc1ccccc1C1CCCC1 (stereo not drawn) [Compound 23, 2-Cyclopentylphenyl 2-(4-(1-(4-(trifluoromethoxy)phenyl)-1H-1,2,4-triazol-3-yl)phenyl)-cyclopropylcarbamate] | – | – | – | 50 to 100 | 0 to 80 | 0 |
| COc1ccc(OC(=O)NC2CC2c2ccc(-c3ncn(-c4ccc(OC(F)(F)F)cc4)n3)cc2)cc1 (stereo not drawn) [Compound 27, 4-Methoxyphenyl 2-(4-(1-(4-(trifluoromethoxy)phenyl)-1H-1,2,4-triazol-3-yl)phenyl)-cyclopropylcarbamate] | – | – | – | 50 to 100 | 0 | 0 to 50 |
| Cc1cc(C)c(OC(=O)NC2CC2c2ccc(-c3ncn(-c4ccc(OC(F)(F)F)cc4)n3)cc2)c(C)c1 (stereo not drawn) [Compound 26, Mesityl 2-(4-(1-(4-(trifluoromethoxy)phenyl)-1H-1,2,4-triazol-3-yl)phenyl)cyclopropyl-carbamate] | – | – | – | 0 to 50 | 0 | 50 to 100 |
